Results published in patent publication US20260132132A1, “3A,4,5,6-TETRAHYDRO-1 H-PYRAZOLO[3,4-C]PYRIDIN-7(7AH)-ONE DERIVATIVES AS FACTOR XIIA INHIBITORS” (KALVISTA PHARMACEUTICALS LIMITED, priority 2022, published 2026).

Legend:
[1] = biological target: T1, Human Factor XIIa (hFXIIa) (Homo sapiens, UniProt P00748); test: Determination of Human Factor XIIa (hFXIIa) inhibition, fluorogenic substrate IC50 assay; format: biochemical; details: fluorogenic substrate H-DPro-Phe-Arg-AFC at Km, 25° C., read-out: Human FXIIa IC50
T1 construct: purchased Enzyme Research Laboratories
T1 sequence (P00748 373-615 limits assumed): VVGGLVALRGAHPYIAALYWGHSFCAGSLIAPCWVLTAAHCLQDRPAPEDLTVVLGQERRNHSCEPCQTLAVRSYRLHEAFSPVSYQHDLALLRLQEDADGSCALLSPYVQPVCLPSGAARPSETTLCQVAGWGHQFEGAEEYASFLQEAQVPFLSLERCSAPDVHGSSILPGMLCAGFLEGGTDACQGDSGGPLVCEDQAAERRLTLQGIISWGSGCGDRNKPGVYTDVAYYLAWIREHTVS
T1 sequence (P00748 20-372 partner limits assumed): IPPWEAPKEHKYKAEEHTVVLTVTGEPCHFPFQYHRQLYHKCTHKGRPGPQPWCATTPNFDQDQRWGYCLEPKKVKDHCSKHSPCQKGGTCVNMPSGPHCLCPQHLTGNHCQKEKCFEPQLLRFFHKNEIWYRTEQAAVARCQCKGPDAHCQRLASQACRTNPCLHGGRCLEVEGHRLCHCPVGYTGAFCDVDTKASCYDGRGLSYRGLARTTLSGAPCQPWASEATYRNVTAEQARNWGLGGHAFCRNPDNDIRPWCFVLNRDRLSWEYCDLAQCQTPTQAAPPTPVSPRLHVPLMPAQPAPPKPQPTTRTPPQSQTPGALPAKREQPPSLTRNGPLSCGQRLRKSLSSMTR
Protocol: Determination of Human Factor XIIa (hFXIIa) inhibition
The Km for the cleavage of the substrate by hFXIIa was determined by standard transformation of the Michaelis-Menten equation, with subsequent inhibition assays performed at substrate Km concentration.

[2] = biological target: FXa (Homo sapiens, UniProt P00742); test: Related protease inhibition: FXa, fluorogenic substrate; format: biochemical; details: fluorogenic substrate at Km, 25° C.; H1-H3 = % activity at 40 μM
Sequence of FXa (P00742 235-488 limits assumed): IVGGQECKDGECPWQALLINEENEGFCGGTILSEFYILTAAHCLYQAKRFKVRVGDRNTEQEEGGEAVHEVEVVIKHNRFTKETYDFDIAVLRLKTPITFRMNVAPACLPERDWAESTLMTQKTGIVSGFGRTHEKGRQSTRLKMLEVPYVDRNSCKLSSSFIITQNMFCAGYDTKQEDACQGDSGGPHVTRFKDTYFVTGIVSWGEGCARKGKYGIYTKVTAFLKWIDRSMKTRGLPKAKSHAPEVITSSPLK
Sequence of FXa (P00742 41-179 partner limits assumed): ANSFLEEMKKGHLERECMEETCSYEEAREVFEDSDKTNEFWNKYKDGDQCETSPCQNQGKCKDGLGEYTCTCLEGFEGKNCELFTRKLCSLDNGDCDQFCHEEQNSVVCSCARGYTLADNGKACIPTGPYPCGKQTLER
Protocol: Human serine protease enzyme Plasma Kallikrein, KLK1, FXa, Plasmin, Thrombin and Trypsin were assayed for enzymatic activity using an appropriate fluorogenic substrate at Km concentration, FXIa at fixed substrate concentration of 100 μM and various concentrations of the test compound.

| Structure (SMILES) | IC50 [1] [nM] | IC50 [2] [nM] |
| --- | --- | --- |
| Cc1cc(CNC(=O)c2nn(-c3cccc(Cl)c3)c3c(=O)n(-c4ccc5c(c4)C(=O)N(CCO)CC5)c(C)nc23)nn1C [Example 3015, 1-(3-chlorophenyl)-N-((1,5-dimethyl-1H-pyrazol-3-yl)methyl)-6-(2-(2-hydroxyethyl)-1-oxo-1,2,3,4-tetrahydroisoquinolin-7-yl)-5-methyl-7-oxo-6,7-dihydro-1H-pyrazolo[4,3-d]pyrimidine-3-carboxamide] | 10 to 100 | > 40000 |
| Cc1cccc(CNC(=O)c2nn(-c3cccc(Cl)c3)c3c2CCN(c2ccc4c(c2)CN(CCO)CC4)C3=O)n1 [Example 1139, 1-(3-chlorophenyl)-6-(2-(2-hydroxyethyl)-1,2,3,4-tetrahydroisoquinolin-7-yl)-N-((6-methylpyridin-2-yl)methyl)-7-oxo-4,5,6,7-tetrahydro-1H-pyrazolo[3,4-c]pyridine-3-carboxamide] | 10 to 100 | 10000 to 40000 |
| O=C(NCc1ccccc1)c1nn(-c2cccc(Cl)c2)c2c1CCN(c1ccc3c(c1)CN(C1CC1)CC3)C2=O [Example 1029, N-benzyl-1-(3-chlorophenyl)-6-(2-cyclopropyl-1,2,3,4-tetrahydroisoquinolin-7-yl)-7-oxo-4,5,6,7-tetrahydro-1H-pyrazolo[3,4-c]pyridine-3-carboxamide] | 300 to 1000 | > 100000 |
| O=C(NCc1cccnc1)c1nn(-c2cccc(Cl)c2)c2c1CCN(c1cccc(CN3CCCCC3)c1)C2=O [Example 1003, 1-(3-chlorophenyl)-7-oxo-6-(3-(piperidin-1-ylmethyl)phenyl)-N-(pyridin-3-ylmethyl)-4,5,6,7-tetrahydro-1H-pyrazolo[3,4-c]pyridine-3-carboxamide] | 300 to 1000 | > 100000 |
| Cc1ccncc1CNC(=O)c1nn(-c2cccc(Cl)c2)c2c1CCN(c1ccc3ccn(C)c(=O)c3c1)C2=O [Example 1212, 1-(3-chlorophenyl)-6-(2-methyl-1-oxo-1,2-dihydroisoquinolin-7-yl)-N-((4-methylpyridin-3-yl)methyl)-7-oxo-4,5,6,7-tetrahydro-1H-pyrazolo[3,4-c]pyridine-3-carboxamide] | 1000 to 3000 | > 40000 |
| O=C(NCc1ccccc1)c1nn(-c2cccc(Cl)c2)c2c1CCN(c1cccc(CN3CCCCC3)c1)C2=O [Example 1001, N-Benzyl-1-(3-chlorophenyl)-7-oxo-6-(3-(piperidin-1-ylmethyl)phenyl)-4,5,6,7-tetrahydro-1H-pyrazolo[3,4-c]pyridine-3-carboxamide] | 100 to 300 | > 40000 |
| Cc1cc(CNC(=O)c2nn(-c3cccc(Cl)c3)c3c2CCN(c2ccc4c(c2)C(=O)N(CCO)[C@H](C)CO4)C3=O)n[nH]1 [Example 1373, (R)-1-(3-chlorophenyl)-6-(4-(2-hydroxyethyl)-3-methyl-5-oxo-2,3,4,5-tetrahydrobenzo[f][1,4]oxazepin-7-yl)-N-((5-methyl-1H-pyrazol-3-yl)methyl)-7-oxo-4,5,6,7-tetrahydro-1H-pyrazolo[3,4-c]pyridine-3-carboxamide] | 300 to 1000 | > 40000 |

Further lines, results first:

| IC50 [1] [nM] | IC50 [2] [nM] | Structure (SMILES) |
| --- | --- | --- |
| 100 to 300 | > 40000 | CCCN1CCc2ccc(N3CCc4c(C(=O)NCc5cc(C)n(C)n5)nn(-c5cccc(Cl)c5)c4C3=O)cc2C1=O [Example 1210, 1-(3-chlorophenyl)-N-((1,5-dimethyl-1H-pyrazol-3-yl)methyl)-7-oxo-6-(1-oxo-2-propyl-1,2,3,4-tetrahydroisoquinolin-7-yl)-4,5,6,7-tetrahydro-1H-pyrazolo[3,4-c]pyridine-3-carboxamide] |
| 10 to 100 | 10000 to 40000 | Cn1cc(Cl)c(CNC(=O)c2nn(-c3cccc(Cl)c3)c3c2CCN(c2ccc4c(c2)CN(CCO)CC4)C3=O)n1 [Example 1155, N-((4-chloro-1-methyl-1H-pyrazol-3-yl)methyl)-1-(3-chlorophenyl)-6-(2-(2-hydroxyethyl)-1,2,3,4-tetrahydroisoquinolin-7-yl)-7-oxo-4,5,6,7-tetrahydro-1H-pyrazolo[3,4-c]pyridine-3-carboxamide] |
| 1000 to 3000 | > 40000 | CCNC(=O)c1nn(-c2cccc(Cl)c2)c2c1CCN(c1cccc(N3CCCN(C)C3=O)c1)C2=O [Example 1390, 1-(3-chlorophenyl)-N-ethyl-6-(3-(3-methyl-2-oxotetrahydropyrimidin-1(2H)-yl)phenyl)-7-oxo-4,5,6,7-tetrahydro-1H-pyrazolo[3,4-c]pyridine-3-carboxamide] |
| 10 to 100 | 10000 to 40000 | Cc1cc(CNC(=O)c2nn(-c3cccc(Cl)c3)c3c2CCN(c2ccc4c(c2)C(=O)N(CCF)CC4)C3=O)nn1C [Example 1254, 1-(3-chlorophenyl)-N-((1,5-dimethyl-1H-pyrazol-3-yl)methyl)-6-(2-(2-fluoroethyl)-1-oxo-1,2,3,4-tetrahydroisoquinolin-7-yl)-7-oxo-4,5,6,7-tetrahydro-1H-pyrazolo[3,4-c]pyridine-3-carboxamide] |
| 300 to 1000 | > 40000 | C[C@H](CO)NC(=O)c1nn(-c2cccc(Cl)c2)c2c1CCN(c1ccc3c(c1)C(=O)N(C)CC3)C2=O [Example 1337, (R)-1-(3-chlorophenyl)-N-(1-hydroxypropan-2-yl)-6-(2-methyl-1-oxo-1,2,3,4-tetrahydroisoquinolin-7-yl)-7-oxo-4,5,6,7-tetrahydro-1H-pyrazolo[3,4-c]pyridine-3-carboxamide] |
| 3000 to 10000 | > 40000 | CCNC(=O)c1nn(-c2cccc(Cl)c2)c2c1CCN(c1ccc(OC)c(N3C(=O)CC4CC43)c1)C2=O (stereo not shown) [Example 1402, 1-(3-chlorophenyl)-N-ethyl-6-(4-methoxy-3-(3-oxo-2-azabicyclo[3.1.0]hexan-2-yl)phenyl)-7-oxo-4,5,6,7-tetrahydro-1H-pyrazolo[3,4-c]pyridine-3-carboxamide] |
| 10 to 100 | > 40000 | CCNC(=O)c1nn(-c2cc(C)cc(CN)c2)c2c1CCN(c1ccc3c(c1)C(=O)N(C)CC3)C2=O [Example 2024, 1-(3-(aminomethyl)-5-methylphenyl)-N-ethyl-6-(2-methyl-1-oxo-1,2,3,4-tetrahydroisoquinolin-7-yl)-7-oxo-4,5,6,7-tetrahydro-1H-pyrazolo[3,4-c]pyridine-3-carboxamide] |
| 1000 to 3000 | > 40000 | CN1CCc2ccc(N3CCc4c(C(=O)N5CCC5)nn(-c5cccc(Cl)c5)c4C3=O)cc2C1=O [Example 1335, 7-(3-(azetidine-1-carbonyl)-1-(3-chlorophenyl)-7-oxo-1,4,5,7-tetrahydro-6H-pyrazolo[3,4-c]pyridin-6-yl)-2-methyl-3,4-dihydroisoquinolin-1(2H)-one] |
| 100 to 300 | 10000 to 40000 | O=C(NCc1ncco1)c1nn(-c2cccc(Cl)c2)c2c1CCN(c1ccc3c(c1)CN(CCO)CC3)C2=O [Example 1151, 1-(3-chlorophenyl)-6-(2-(2-hydroxyethyl)-1,2,3,4-tetrahydroisoquinolin-7-yl)-N-(oxazol-2-ylmethyl)-7-oxo-4,5,6,7-tetrahydro-1H-pyrazolo[3,4-c]pyridine-3-carboxamide] |
| 10 to 100 | 10000 to 40000 | O=C(NCc1ccn[nH]1)c1nn(-c2cccc(Cl)c2)c2c1CCN(c1ccc3c(c1)CN(CCO)CC3)C2=O [Example 1089, N-((1H-pyrazol-5-yl)methyl)-1-(3-chlorophenyl)-6-(2-(2-hydroxyethyl)-1,2,3,4-tetrahydroisoquinolin-7-yl)-7-oxo-4,5,6,7-tetrahydro-1H-pyrazolo[3,4-c]pyridine-3-carboxamide] |
